Laboratory results taken from PubChem BioAssay (NCI).
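Exposure lasted 48 hours, with cells grown in 96-well plates and compounds tested at five concentrations. At the GI50, growth is halved. TGI: total growth inhibition.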

Assays:
Experiment in all cases: DTP human tumour cell line panel, 48 h
SK-MEL-2 melanoma = tested on: SK-MEL-2 melanoma
SF-539 CNS = tested on: SF-539 CNS
SK-OV-3 ovarian = tested on: SK-OV-3 ovarian
HCT-116 colon = tested on: HCT-116 colon
K-562 leukemia = tested on: K-562 leukemia
ACHN renal = tested on: ACHN renal
SK-MEL-5 melanoma = tested on: SK-MEL-5 melanoma
LOX IMVI melanoma = tested on: LOX IMVI melanoma
786-0 renal = tested on: 786-0 renal
UACC-257 melanoma = tested on: UACC-257 melanoma

Compound | TGI (SK-MEL-2 melanoma) [µM] | TGI (SF-539 CNS) [µM] | TGI (SK-OV-3 ovarian) [µM] | TGI (HCT-116 colon) [µM] | TGI (K-562 leukemia) [µM] | TGI (ACHN renal) [µM] | TGI (SK-MEL-5 melanoma) [µM] | TGI (LOX IMVI melanoma) [µM] | TGI (786-0 renal) [µM] | TGI (UACC-257 melanoma) [µM] | GI50 (SK-MEL-2 melanoma) [µM] | GI50 (SF-539 CNS) [µM] | GI50 (SK-OV-3 ovarian) [µM] | GI50 (HCT-116 colon) [µM] | GI50 (K-562 leukemia) [µM] | GI50 (ACHN renal) [µM] | GI50 (SK-MEL-5 melanoma) [µM] | GI50 (LOX IMVI melanoma) [µM] | GI50 (786-0 renal) [µM] | GI50 (UACC-257 melanoma) [µM]
O=C(/C=C/c1ccccc1)CC(=O)CCC(=O)Nc1ccc(Cl)cc1 | > 100 | > 100 | > 100 | > 100 | > 100 | > 100 | > 100 | > 100 | > 100 | > 100 |  |  |  |  |  |  |  |  |  | 
C=C1C(=O)O[C@H]2[C@H]1CC/C(C=Nc1c(N)cc(C(F)(F)F)cc1Br)=C\CC[C@@]1(C)O[C@@H]21 | 3.47 | 2.87 | 18.9 | 2.41 | 6.87 | 2.71 | 2.64 | 2.74 | 3.91 | 3.61 | 1.63 | 1.51 | 6.56 | 1.11 | 1.99 | 1.41 | 1.35 | 1.4 | 2.14 | 1.64
CNC(=O)c1nn(C)c2c1C(C)(C)Cc1cnc(Nc3ccc(N4CCN(C)CC4)cc3)nc1-2 | > 8.25 | > 6.03 | 1.54 | > 9.48 | > 7.77 | 8.62 | > 10 | > 10 | > 10 | > 9.15 | 0.432 | 1.39 | 0.209 | 0.346 | 0.356 | 0.424 | 7.44 | 0.606 | 0.649 | 0.863
CC(C)CCC1(CCN)C(=O)NC(=O)NC1=O | > 100 | > 100 | > 100 | > 100 | > 100 | > 100 | > 100 | > 100 | > 100 | > 100 |  |  |  |  |  |  |  |  |  | 
Cc1cc(N(CCC#N)CCC#N)ccc1/C=C(\NC(=O)/C=C/c1ccccc1)C(=O)NN | > 100 | > 100 | > 82.6 | > 100 | > 100 | > 100 | > 100 | > 100 | > 100 | > 100 |  |  |  |  |  |  |  |  |  | 
CSC(=S)N/N=C/c1nccc2ccccc12 | 5.89 | 4.83 | 29.8 | > 100 | 14.3 | 12.2 | 2.66 | 13.1 | 12.6 | 15.5 |  |  |  |  |  |  |  |  |  | 
COc1ccc2[nH]c3c(c2c1)[C@H](C)C[C@@H]1C(=O)N(c2ccccc2)C(=O)[C@H]31 | > 100 | 41 | 46 | 38.8 | > 100 | > 100 | > 100 | > 100 | 48.5 | > 100 |  |  |  |  |  |  |  |  |  | 
Cc1c(C(=O)O)oc2ccc([N+](=O)[O-])cc12 | > 100 | > 100 | > 100 | > 100 | > 100 | > 100 | > 100 | > 100 | > 100 | > 100 |  |  |  |  |  |  |  |  |  | 
CN(C)CCNC(=O)Cn1ccc(=O)c2c([N+](=O)[O-])cccc21 | > 100 | > 100 | > 100 | > 100 | > 100 | > 100 | > 100 | > 100 | > 100 | > 100 |  |  |  |  |  |  |  |  |  | 
C=CC(OCC)(OCC)OCC | > 100 | > 100 | > 100 | 43.6 | > 100 | > 100 | > 100 | > 100 | 58.7 | > 100 |  |  |  |  |  |  |  |  |  | 
CN(C)C(=O)O[C@H]1CN[C@H](C#Cc2cc3ncnc(Nc4ccc(OCc5cccc(F)c5)c(Cl)c4)c3s2)C1 | > 25 | > 25 | > 25 | > 25 | > 25 | > 25 | > 25 | > 25 | 15 | > 25 | > 25 | 8.16 | 0.102 | 12.1 | > 17.1 | 6.27 | 16 | > 23.2 | 5.8 | > 25
O=C(O)c1ccccc1/C=N/N=C1c2ccccc2-c2ccccc21 | > 100 | > 100 | > 100 | > 100 | > 100 | > 100 | > 100 | > 100 | > 100 | > 100 |  |  |  |  |  |  |  |  |  | 
